We go through one molecule from paper PMC12736958 (Pharmaceutics, 2025).

The nature of data set [1]: PXRD crystallinity of precipitates collected during dissolution. Format: physicochemical. To be noted: precipitates collected at 20 min and 1 h of non-sink dissolution. The procedure:
PXRD was used to characterize the crystalline nature of both freshly prepared Cur ASDs and precipitates collected during their dissolution. Measurements were conducted on a Rigaku Smartlab diffractometer (Rigaku Corporation, Tokyo, Japan) configured in Bragg–Brentano geometry using Cu Kα1 radiation. Diffractograms were collected over a 2θ range of 0° to 60° with a step size of 0.01°.
(§1) The dissolution behavior of Cur formulations was evaluated under non-sink conditions. Tested formulations included pure amorphous Cur, binary Cur/P188 ASD (1:8, w/w), and ternary Cur/P188/TW80 and Cur/P188/SLS ASDs (1:8:1, w/w/w). Each sample was introduced into 6 mL of water (pH 7.0) to achieve a Cur-equivalent concentration of 1 mg/mL at 37 °C. Aliquots (0.4 mL) were collected at 10, 20, and 45 min, as well as at 1h and 2 h, and immediately centrifuged (10,000 rpm, 3 min, 25 °C) to separate the supernatant from the precipitate. (1) The supernatant was diluted 1:2 (v/v) with methanol and analyzed for Cur concentration via HPLC/UV-Vis; (2) The precipitate was vacuum-dried and analyzed for crystallinity using PXRD.

Data set [2] has as its system MDCK cells. Briefly: cytotoxicity assay (CCK-8 cell viability). The following applies: 4 h treatment. The data set is classed as cell-based, canine. The protocol: Madin-Darby Canine Kidney (MDCK) cells were seeded in 96-well plates (1 × 10^5 cells/well) and cultured for 24 h at 37 °C in complete DMEM (10% FBS, 1% penicillin–streptomycin) under 5% CO2. Cells were treated for 4 h with 100 µL of complete DMEM media (pH 7.4) containing crystalline Cur, amorphous Cur, binary Cur/P188 ASD (1:8, w/w), or ternary Cur/P188/TW80 or Cur/P188/SLS ASDs (1:8:1, w/w/w), at Cur-equivalent concentrations of 0 (vehicle), 2, 10, 25, 50, 100, and 200 μg/mL. After treatment, cells were washed three times with PBS (pH 7.4). Cell viability was assessed using a CCK-8 assay: 100 µL of serum-free DMEM and 10 µL of CCK-8 reagent were added to each well, followed by incubation for 2 h. Absorbance was measured at 450 nm using a Multiskan GO microplate reader (Thermo Fisher Scientific, Vantaa, Finland).
Cell viability was calculated according to the following equation:Viability (%) = [(As − Aᵦ)/(Ac − Aᵦ)] × 100% where
• As is the absorbance of experimental wells (cells + treatment + CCK-8); • Ac is the absorbance of control wells (cells + medium + CCK-8, no drug); • Aᵦ is the absorbance of blank wells (medium + CCK-8, no cells, no drug).
All experiments were performed in quintuplicate (n = 5).

Data set [3] is described as follows: in vitro non-sink dissolution. Format: physicochemical. The following applies: Cur-equivalent 1 mg/mL, water pH 7.0, 37 °C. The protocol: as §1
All dissolution experiments were conducted in triplicate (n = 3).
Cur content in in vitro dissolution samples was quantified using a Waters 2695 Alliance HPLC system (Waters Corporation, Milford, MA, USA) equipped with a Waters 2998 photodiode array (PDA) detector. Separation was performed on an XBridge® C18 column (4.6 × 250 mm, 5.0 μm; Waters) maintained at 25 °C. The mobile phase, composed of water and methanol (80:20, v/v), was delivered isocratically at a flow rate of 1.0 mL/min. The injection volume was 10 μL, and detection was performed at 430 nm, and Cur eluted at approximately 4.80 min. […]

Data set [4] concerns MDCK cells. The data set can be described thus: cellular uptake study (LC-MS/MS of intracellular Cur). Format: cell-based, canine. The following applies: 10 min incubation, 5 μg Cur-equivalent (10 μg/mL). The procedure:
MDCK cells were seeded in 24-well plates and cultured following the procedures described in Cytotoxicity Assay section. The cells were treated with 500 µL of complete DMEM medium (pH 7.4) containing crystalline Cur, amorphous Cur, binary Cur/P188 ASD (1:8, w/w), or ternary Cur/P188/TW80 or Cur/P188/SLS ASDs (1:8:1, w/w/w), at Cur-equivalent dose of 5 µg per well. After 10 min of incubation, the treatment was terminated by immediate removal of the medium. The cells were then washed three times with ice-cold PBS, lysed with 200 µL of 0.1% SDS (assisted by sonication), and dissolved in methanol at a 1:2 (v/v) ratio. The total intracellular Cur content was quantified using LC-MS/MS. All experiments were performed in quadruplicate (n = 4).
Cur quantification in cellular and rat plasma samples was carried out using a SCIEX QTRAP® 5500 LC-MS/MS system coupled with a SCIEX ExionLC^TM AC system (AB SCIEX, Framingham, MA, USA).
Separation was achieved on an Acquity UPLC® BEH C18 column (100 × 2.1 mm, 1.7 μm; Waters) maintained at 40 °C. […]
Mass spectrometric detection was performed using an IonDrive^TM Turbo V ion (SCIEX, Framingham, MA, USA) source operating in negative electrospray ionization (ESI) mode. Quantification was conducted via multiple reaction monitoring (MRM) at m/z 367.1→133.9 for Cur, and m/z 294.1→250.0 for diclofenac sodium (IS). […]

Take `COc1cc(/C=C/C(=O)CC(=O)/C=C/c2ccc(O)c(OC)c2)ccc1O` [amorphous Cur, Curcumin]: the “crystallinity of precipitates during dissolution (PXRD)” value in data set [1] was “crystallized immediately upon hydration”. Besides, the “IC50 (cytotoxicity, Cur-equivalent)” value in the data set with MDCK cells [2] stood at 54.7 µg/mL. Further, the “dissolved Cur concentration reached over 2 h” value in data set [3] is ~ 1 μg/mL. Moreover, in the data set on MDCK cells [4], the “cellular uptake (% of the administered dose)” value is 1.4%.
